US20190263804A1, “AZABENZIMIDAZOLE DERIVATIVES AS PI3K BETA INHIBITORS” (Janssen Pharmaceutica NV, priority 2016, published 2019)

Key:
[1] = system: phosphorylation of Akt (Thr308) in PC-3 cells; assay: Cellular assay: phospho-Akt (Thr308) MSD ELISA in PC-3 cells; type: cell-based; conditions: Homo sapiens, 1 h, 60 min compound incubation, read-out: IC50 pAkt_Thr308
Method: (§1) Cellular activity of PI3K(3 inhibitors was determined by quantifying the phosphorylation of Akt in PC-3 cells. Akt phosphorylated at Ser473 and Thr308 were measured using an enzyme-linked immunosorbent assay (ELISA; Meso Scale Discovery (MSD), Gaithersburg, Md.) and specific primary antibodies from MSD.
(§2) On day 1, PC3 cells (ATCC # […]) were seeded into PerkinElmer MW96 plates at 25.000 cells per well, in 75 μl complete culture medium (DMEM high glucose, AQmedia™, D0819, Sigma-Aldrich) containing 10% heat inactivated FCS and incubated at 37° C., 5% CO2 during 24 hours. On day 2, compound or DMSO (0.3%) was added and cells were further incubated for 60 min at 37° C., 5% CO2 in a total volume of 100 μl of medium.
(§3) The phosphoprotein assay was executed according to vendor instructions in the Phospho-Akt (Ser473) Assay Whole Cell Lysate Kit (MSD # K15100D-3) and the Phospho-Akt (Thr308) Assay Whole Cell Lysate Kit (MSD # K151DYD-3) using the lysis, blocking and wash buffer provided.
(§4) Briefly, at the end of the cell treatment period, media were removed by aspiration and adherent cells were lysed in 50 μl ice-cold lysis buffer. MSD plates are supplied pre-coated with capture antibodies for Phospho-Akt (Ser473 and Thr308). After blocking, lysates from tissue culture plates were added and plates were washed. Then, a solution containing the detection antibody (anti-total Akt conjugated with an electrochemiluminescent compound-MSD Sulfo-tag label) was added. The signals were detected using an MSD SECTOR Imager 6000 and are proportional to the phospho-Akt titres.
(§5) Data were processed. The percentage of inhibition was plotted against the log concentration of test compounds, and the sigmoidal log concentration-effect curve of best fit was calculated by nonlinear regression analysis. From these concentration-response curves, the IC50 values were calculated. Five concentrations were used for curve fitting.

PIK3Cδ_h = target: T1, PIK3Cδ_h (Homo sapiens, UniProt O00329); assay: KINOMEscan enzyme binding assay, PIK3Cδ; conditions: KINOMEscan (DiscoveRx)
T1 construct: purchased DiscoveRx Corporation, San Diego (contract assay service)
T1 sequence (O00329 1-1044): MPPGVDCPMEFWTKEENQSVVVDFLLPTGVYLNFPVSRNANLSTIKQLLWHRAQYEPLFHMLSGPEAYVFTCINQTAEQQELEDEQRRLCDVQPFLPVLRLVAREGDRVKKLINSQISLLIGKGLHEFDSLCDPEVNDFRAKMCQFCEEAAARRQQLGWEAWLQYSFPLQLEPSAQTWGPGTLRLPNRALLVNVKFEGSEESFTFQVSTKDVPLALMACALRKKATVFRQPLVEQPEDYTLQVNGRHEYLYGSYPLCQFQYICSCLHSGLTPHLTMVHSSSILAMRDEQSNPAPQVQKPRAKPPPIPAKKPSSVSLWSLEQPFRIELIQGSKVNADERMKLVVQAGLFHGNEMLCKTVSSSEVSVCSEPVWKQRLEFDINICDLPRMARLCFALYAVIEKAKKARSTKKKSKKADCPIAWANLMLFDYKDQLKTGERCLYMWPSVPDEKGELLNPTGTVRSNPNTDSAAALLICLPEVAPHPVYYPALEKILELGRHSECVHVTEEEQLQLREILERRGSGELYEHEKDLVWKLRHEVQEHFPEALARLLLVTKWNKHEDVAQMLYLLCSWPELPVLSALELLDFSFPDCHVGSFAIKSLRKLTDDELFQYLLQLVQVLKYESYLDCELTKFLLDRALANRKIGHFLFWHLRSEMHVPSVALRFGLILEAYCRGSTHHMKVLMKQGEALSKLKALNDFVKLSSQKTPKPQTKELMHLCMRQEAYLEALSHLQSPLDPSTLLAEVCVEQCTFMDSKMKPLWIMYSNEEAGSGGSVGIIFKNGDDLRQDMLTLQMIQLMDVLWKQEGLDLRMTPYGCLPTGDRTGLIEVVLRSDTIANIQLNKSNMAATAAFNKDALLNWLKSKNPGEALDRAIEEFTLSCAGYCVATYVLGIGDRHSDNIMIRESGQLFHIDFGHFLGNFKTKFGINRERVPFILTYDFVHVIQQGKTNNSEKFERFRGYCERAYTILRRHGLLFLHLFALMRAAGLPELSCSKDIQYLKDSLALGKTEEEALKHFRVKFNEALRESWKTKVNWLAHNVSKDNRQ
Method: (§6) Enzyme Binding Assays (KINOMEscan®)
(§7) Kinase enzyme binding affinities of compounds disclosed herein were determined using the KINOMEscan technology performed by DiscoveRx Corporation, San Diego, Calif., USA (www.kinomescan.com). Table A reports the obtained Kd values (nM), with the Kd being the inhibitor binding constant (‘n.d.’ means not determined): […]

PIK3Cγ_h = target: T2, PIK3Cγ_h (Homo sapiens, UniProt P48736); assay: KINOMEscan enzyme binding assay, PIK3Cγ; conditions: KINOMEscan (DiscoveRx)
T2 construct: purchased DiscoveRx Corporation, San Diego (contract assay service)
T2 sequence (P48736 whole entry): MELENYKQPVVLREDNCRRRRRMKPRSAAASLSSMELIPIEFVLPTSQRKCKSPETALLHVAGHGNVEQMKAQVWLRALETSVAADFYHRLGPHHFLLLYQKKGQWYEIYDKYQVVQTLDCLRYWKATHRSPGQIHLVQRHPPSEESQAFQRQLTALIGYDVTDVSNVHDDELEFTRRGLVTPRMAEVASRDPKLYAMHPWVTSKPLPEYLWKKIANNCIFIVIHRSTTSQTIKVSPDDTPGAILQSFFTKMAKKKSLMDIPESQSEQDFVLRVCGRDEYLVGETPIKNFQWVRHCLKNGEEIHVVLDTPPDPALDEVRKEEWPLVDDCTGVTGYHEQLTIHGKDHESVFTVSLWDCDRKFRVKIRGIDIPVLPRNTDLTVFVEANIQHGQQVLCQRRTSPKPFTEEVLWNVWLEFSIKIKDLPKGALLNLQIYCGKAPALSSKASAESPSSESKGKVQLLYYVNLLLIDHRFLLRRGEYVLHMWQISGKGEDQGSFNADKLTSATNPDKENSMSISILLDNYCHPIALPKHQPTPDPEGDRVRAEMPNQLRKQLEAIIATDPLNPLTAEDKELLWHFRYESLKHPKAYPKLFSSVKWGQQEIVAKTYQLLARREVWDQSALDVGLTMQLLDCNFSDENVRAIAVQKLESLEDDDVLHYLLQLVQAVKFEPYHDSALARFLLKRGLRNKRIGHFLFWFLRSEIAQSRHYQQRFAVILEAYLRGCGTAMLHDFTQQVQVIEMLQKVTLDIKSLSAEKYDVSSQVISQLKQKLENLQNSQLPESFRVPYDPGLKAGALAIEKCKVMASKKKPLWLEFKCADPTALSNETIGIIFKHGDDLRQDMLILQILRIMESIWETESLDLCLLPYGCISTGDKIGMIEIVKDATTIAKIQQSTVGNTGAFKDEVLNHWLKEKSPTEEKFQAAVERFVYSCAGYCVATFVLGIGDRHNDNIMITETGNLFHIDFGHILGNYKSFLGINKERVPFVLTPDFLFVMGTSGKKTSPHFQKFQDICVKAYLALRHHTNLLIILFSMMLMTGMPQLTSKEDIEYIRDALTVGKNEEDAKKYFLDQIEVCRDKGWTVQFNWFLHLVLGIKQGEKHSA
Method: as §6, §7

MTOR_h = target: T3, MTOR_h (Homo sapiens, UniProt P42345); assay: KINOMEscan enzyme binding assay, MTOR; conditions: KINOMEscan (DiscoveRx)
T3 construct: purchased DiscoveRx Corporation, San Diego (contract assay service)
Method: as §6, §7

PIK3Cβ_h = target: T4, PIK3Cβ_h (Homo sapiens, UniProt P42338); assay: KINOMEscan enzyme binding assay, PIK3Cβ; conditions: KINOMEscan (DiscoveRx)
T4 construct: purchased DiscoveRx Corporation, San Diego (contract assay service)
T4 sequence (P42338 whole entry): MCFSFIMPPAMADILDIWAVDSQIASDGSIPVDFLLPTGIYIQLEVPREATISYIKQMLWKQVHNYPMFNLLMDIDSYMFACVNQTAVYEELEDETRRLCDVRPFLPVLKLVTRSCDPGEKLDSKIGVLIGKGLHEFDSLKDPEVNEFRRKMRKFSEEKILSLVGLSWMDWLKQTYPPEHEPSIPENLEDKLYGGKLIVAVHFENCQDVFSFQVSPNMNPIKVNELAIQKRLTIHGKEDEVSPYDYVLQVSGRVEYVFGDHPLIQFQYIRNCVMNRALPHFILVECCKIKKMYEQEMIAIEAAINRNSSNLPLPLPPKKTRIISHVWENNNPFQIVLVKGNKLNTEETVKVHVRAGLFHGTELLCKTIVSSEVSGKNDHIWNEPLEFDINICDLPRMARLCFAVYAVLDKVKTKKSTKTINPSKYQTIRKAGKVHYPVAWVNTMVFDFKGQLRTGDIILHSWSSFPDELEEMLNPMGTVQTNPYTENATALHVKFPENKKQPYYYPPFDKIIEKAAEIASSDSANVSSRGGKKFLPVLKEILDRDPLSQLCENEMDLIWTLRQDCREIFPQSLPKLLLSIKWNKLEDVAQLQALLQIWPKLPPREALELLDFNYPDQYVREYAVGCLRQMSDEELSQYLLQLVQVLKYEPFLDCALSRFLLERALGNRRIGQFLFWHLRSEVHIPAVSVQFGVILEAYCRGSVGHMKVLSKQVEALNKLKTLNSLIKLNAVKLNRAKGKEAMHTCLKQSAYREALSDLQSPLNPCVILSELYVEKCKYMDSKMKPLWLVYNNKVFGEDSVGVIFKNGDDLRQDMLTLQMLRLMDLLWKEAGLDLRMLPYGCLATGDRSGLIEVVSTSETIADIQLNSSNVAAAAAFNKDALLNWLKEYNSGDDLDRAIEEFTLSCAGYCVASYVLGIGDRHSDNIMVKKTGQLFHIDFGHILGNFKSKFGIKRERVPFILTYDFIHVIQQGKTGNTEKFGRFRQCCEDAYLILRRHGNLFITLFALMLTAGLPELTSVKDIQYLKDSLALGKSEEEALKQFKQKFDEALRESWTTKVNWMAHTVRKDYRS
Method: as §6, §7

[2] = system: phosphorylation of Akt (Ser473) in PC-3 cells; assay: Cellular assay: phospho-Akt (Ser473) MSD ELISA in PC-3 cells; type: cell-based; conditions: Homo sapiens, 1 h, 60 min compound incubation, read-out: IC50 pAkt_S473
Method: as §1, §2, §3, §4, §5

PIK3Cα_h = target: T5, PIK3Cα_h (Homo sapiens, UniProt P42336); assay: KINOMEscan enzyme binding assay, PIK3Cα; conditions: KINOMEscan (DiscoveRx)
T5 construct: purchased DiscoveRx Corporation, San Diego (contract assay service)
T5 sequence (P42336 whole entry): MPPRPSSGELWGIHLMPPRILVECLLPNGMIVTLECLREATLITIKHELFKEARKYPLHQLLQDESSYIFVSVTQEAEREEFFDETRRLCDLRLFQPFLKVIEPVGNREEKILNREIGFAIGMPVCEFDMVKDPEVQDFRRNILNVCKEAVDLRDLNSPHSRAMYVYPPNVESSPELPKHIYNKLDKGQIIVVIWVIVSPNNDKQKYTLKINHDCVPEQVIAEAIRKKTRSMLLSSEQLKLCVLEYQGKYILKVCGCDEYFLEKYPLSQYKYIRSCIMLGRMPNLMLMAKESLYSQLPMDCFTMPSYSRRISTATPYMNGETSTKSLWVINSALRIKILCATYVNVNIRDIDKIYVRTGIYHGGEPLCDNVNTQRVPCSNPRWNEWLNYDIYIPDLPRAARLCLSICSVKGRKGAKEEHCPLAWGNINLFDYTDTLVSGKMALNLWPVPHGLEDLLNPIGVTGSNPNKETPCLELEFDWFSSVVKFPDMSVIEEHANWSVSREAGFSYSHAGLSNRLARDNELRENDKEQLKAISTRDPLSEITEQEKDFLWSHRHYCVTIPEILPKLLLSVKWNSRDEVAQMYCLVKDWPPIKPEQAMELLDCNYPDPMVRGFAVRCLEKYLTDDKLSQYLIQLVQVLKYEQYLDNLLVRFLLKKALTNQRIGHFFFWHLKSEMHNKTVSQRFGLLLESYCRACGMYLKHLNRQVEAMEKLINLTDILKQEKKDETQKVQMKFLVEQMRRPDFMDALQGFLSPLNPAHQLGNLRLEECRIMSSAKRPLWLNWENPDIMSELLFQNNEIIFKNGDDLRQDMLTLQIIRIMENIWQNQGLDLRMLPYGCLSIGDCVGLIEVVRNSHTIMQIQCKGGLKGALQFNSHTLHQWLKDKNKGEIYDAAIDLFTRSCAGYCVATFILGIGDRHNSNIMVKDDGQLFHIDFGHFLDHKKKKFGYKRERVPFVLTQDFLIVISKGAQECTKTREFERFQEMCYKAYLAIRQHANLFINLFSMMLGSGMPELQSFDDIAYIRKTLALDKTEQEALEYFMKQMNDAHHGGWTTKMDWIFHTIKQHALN
Method: as §6, §7

| Structure (SMILES) | IC50 [1] [µM] | Kd (PIK3Cδ_h) [µM] | Kd (PIK3Cγ_h) [µM] | Kd (MTOR_h) [µM] | Kd (PIK3Cβ_h) [µM] | IC50 [2] [µM] | Kd (PIK3Cα_h) [µM] |
| --- | --- | --- | --- | --- | --- | --- | --- |
| Cc1c(F)cccc1Cn1c(C)nc2c(N)nc(N3CCOCC3)cc21 [Compound 16] | 0.18 | 5.6 | > 30.2 | > 30.2 | 0.132 | 0.41 | > 30.2 |
| Cc1nc2cnc(N3CCOCC3)cc2n1Cc1cccc2c1CNCC2 [Compound 9] | ~0.46 | 5.1 | > 30.2 | > 30.2 | 0.079 | ~0.48 | > 30.2 |
| Cc1cccc(Cn2c(C)nc3c(N)nc(N4CCOCC4)cc32)c1C [Compound 17] | 0.19 | 1.5 | > 30.2 | > 30.2 | 0.019 | ~0.23 | 8.3 |
| Cc1nc2cnc(N3CCOCC3)cc2n1Cc1cccc2c1CN(C)CC2 [Compound 10] | > 0.51 | 4.2 | > 30.2 | > 30.2 | 0.1 | > 0.51 | 26.9 |
| Cc1c(Cn2c(C)nc3cnc(N4CCOCC4)cc32)cccc1C(F)(F)F [Compound 2] | 0.43 | 1.5 | 22.4 | > 30.2 | 0.002 | 0.18 | 3.7 |
| Cc1c(Cn2c(CN3CC(O)C3)nc3cnc(N4CCOCC4)cc32)cccc1C(F)(F)F [Compound 7] | 0.39 | 1.1 | > 30.2 | 4.6 | 0.003 | 0.48 | 2.2 |
| Cc1c(Cn2c(C)nc3c(N)nc(C4=CCOCC4)cc32)cccc1C(F)(F)F [Compound 4] | 0.15 | 4.3 | > 30.2 | > 30.2 | 0.009 | ~0.14 | 17 |
| Cc1nc2cnc(N3CCOCC3)cc2n1Cc1cccc2c1CN(CCO)CC2 [Compound 11] | > 0.51 | 1.3 | 32.4 | > 30.2 | 0.027 | > 0.51 | 8.7 |
| Cc1c(Cl)cccc1Cn1c(CN2CCS(=O)(=O)CC2)nc2cnc(N3CCOCC3)cc21 [Compound 5] | 0.13 | 1.5 | > 30.2 | > 30.2 | 0.004 | ~0.1 | 2.6 |
| Cc1c(Cn2c(CN3CCS(=O)(=O)CC3)nc3cnc(N4CCOCC4)cc32)cccc1C(F)(F)F [Compound 8] | 0.29 | 2.6 | > 30.2 | > 30.2 | 0.011 | – | 11 |
| Cc1c(F)cccc1Cn1c(C)nc2c(N)nc(C3=CCOCC3)cc21 [Compound 14] | 0.22 | 3.3 | 21.9 | > 30.2 | 0.011 | 0.32 | > 30.2 |

Now those with a lower IC50 [1], led by results:

| IC50 [1] [µM] | Kd (PIK3Cδ_h) [µM] | Kd (PIK3Cγ_h) [µM] | Kd (MTOR_h) [µM] | Kd (PIK3Cβ_h) [µM] | IC50 [2] [µM] | Kd (PIK3Cα_h) [µM] | Structure (SMILES) |
| --- | --- | --- | --- | --- | --- | --- | --- |
| 0.08 | 1.3 | 17 | > 30.2 | 0.003 | 0.17 | 5.9 | Cc1c(Cn2c(C)nc3cnc(C4=CCOCC4)cc32)cccc1C(F)(F)F [Compound 13] |
| 0.11 | 0.7 | > 30.2 | > 30.2 | 0.003 | 0.31 | 13.2 | Cc1cccc(Cn2c(C)nc3c(N)nc(C4=CCOCC4)cc32)c1C [Compound 12] |
| 0.04 | 0.2 | > 30.2 | > 30.2 | 0.001 | 0.07 | 1.6 | Cc1c(Cn2c(CN3CC4(CC(O)C4)C3)nc3cnc(N4CCOCC4)cc32)cccc1C(F)(F)F [Compound 3] |
| 0.03 | 0.6 | 9.5 | ≥ 30.2 | 0.002 | 0.04 | 2.1 | Cc1c(Cl)cccc1Cn1c(C)nc2cnc(N3CCOCC3)cc21 [Compound 1] |
| 0.04 | 0.8 | 18.2 | ≥ 30.2 | 0.001 | 0.05 | 2.8 | Cc1c(Cn2c(CO)nc3cnc(N4CCOCC4)cc32)cccc1C(F)(F)F [Compound 6] |
| 0.09 | 6.3 | > 30.2 | > 30.2 | 0.398 | 0.12 | 18.2 | Cc1c(Cn2c(C)nc3c(N)nc(N4CCOCC4)cc32)cccc1C(F)(F)F [Compound 15] |
